The test system of the first assay is Phytophthora infestans. Put plainly: microbe, parasite or virus in culture. In kind it is cell-based. The settings on record: 30 ppm in Rye Agar medium; seven days at 18° C.
With `Cn1nc(C(F)(F)F)cc1OCC(=O)N1CCC(c2nc(C3=NOC(c4c(Cl)cccc4Cl)C3)cs2)CC1` (centres unmarked) [Compound 2], the “control (radial growth) compared to the untreated check” value is listed as 70%.
For `Cn1nc(OCC(=O)N2CCC(c3nc(C4=NOC(c5c(Cl)cccc5OS(C)(=O)=O)C4)cs3)CC2)cc1C(F)(F)F` (centres unmarked) [Compound 19], the “control (radial growth) compared to the untreated check” value is on record as 70%.
As for `O=C(COc1ncc(C(F)(F)F)cc1Br)N1CCC(c2nc(C3=NOC(c4c(F)cccc4F)C3)cs2)CC1` (centres unmarked) [Compound 53], the “control (radial growth) compared to the untreated check” value is 70%.

Staying with this assay, now noted: Phytophthora infestans, 168 h, read-out: control (radial growth) compared to the untreated check.
For the molecule `Cn1ccc(OCC(=O)N2CCC(c3nc(C4=NOC(c5c(F)cccc5F)C4)cs3)CC2)n1` (centres unmarked) [Compound 1, 1-(4-(4-(5-(2,6-difluorophenyl)-4,5-dihydroisoxazol-3-yl)thiazol-2-yl)piperidin-1-yl)-2-((1-methyl-1H-pyrazol-3-yl)oxy)ethan-1-one], the inhibition of growth at 30 ppm was 70%.
In the case of `Cn1nc(C(F)(F)F)cc1OCC(=O)N1CCC(c2nc(C3=NOC(c4c(F)cccc4F)C3)cs2)CC1` (centres unmarked) [Compound 3, 1-(4-(4-(5-(2,6-difluorophenyl)-4,5-dihydroisoxazol-3-yl)thiazol-2-yl)piperidin-1-yl)-2-((1-methyl-3-(trifluoromethyl)-1H-pyrazol-5-yl)oxy) ethan-1-one], the inhibition of growth at 30 ppm was determined as 70%.
Consider `Cn1nc(C(F)(F)F)cc1OCC(=O)N1CCC(c2nc(C3=NOC(c4c(Cl)cccc4OS(C)(=O)=O)C3)cs2)CC1` (centres unmarked) [Compound 4, 3-chloro-2-(3-(2-(1-(2-((1-methyl-3-(trifluoromethyl)-1H-pyrazol-5-yl)oxy)acetyl)piperidin-4-yl)thiazol-4-yl)-4,5-dihydroisoxazol-5-yl)phenyl methanesulfonate], for which the inhibition of growth at 30 ppm stood at 70%.
On the same count and under the same terms, next, `Cn1ccc(OCC(=O)N2CCC(c3nc(C4=NOC(c5c(Cl)cccc5OS(C)(=O)=O)C4)cs3)CC2)n1` (centres unmarked) [Compound 5, 3-chloro-2-(3-(2-(1-(2-((1-methyl-1H-pyrazol-3-yl)oxy)acetyl)piperidin-4-yl)thiazol-4-yl)-4,5-dihydroisoxazol-5-yl)phenyl methanesulfonate]: 70%; `Cn1nc(OCC(=O)N2CCC(c3nc(C4=NOC(c5c(F)cccc5F)C4)cs3)CC2)cc1C(F)F` (centres unmarked) [Compound 9]: 70%; `Cn1nc(OCC(=O)N2CCC(c3nc(C4=NOC(c5c(F)cccc5F)C4)cs3)CC2)cc1C(F)(F)F` (centres unmarked) [Compound 20, 1-(4-(4-(5-(2,6-difluorophenyl)-4,5-dihydroisoxazol-3-yl)thiazol-2-yl)piperidin-1-yl)-2-((1-methyl-5-(trifluoromethyl)-1H-pyrazol-3-yl)oxy) ethan-1-one]: 70%.
On to `O=C(COc1cc(C(F)(F)F)ccn1)N1CCC(c2nc(C3=NOC(c4c(F)cccc4F)C3)cs2)CC1` (centres unmarked) [Compound 43], for which the inhibition of growth at 30 ppm came out at 70%.
Turning to `CS(=O)(=O)Oc1cccc(Cl)c1C1CC(c2csc(C3CCN(C(=O)COc4cc(C(F)(F)F)ccn4)CC3)n2)=NO1` (centres unmarked) [Compound 46, 3-chloro-2-(3-(2-(1-(2-((4-(trifluoromethyl)pyridin-2-yl)oxy)acetyl)piperidin-4-yl)thiazol-4-yl)-4,5-dihydroisoxazol-5-yl)phenyl methanesulfonate], the inhibition of growth at 30 ppm was determined as 70%.
Take `O=C(COc1ccc(C(F)(F)F)cn1)N1CCC(c2nc(C3=NOC(c4c(Cl)cccc4Cl)C3)cs2)CC1` (centres unmarked) [Compound 47, 1-(4-(4-(5-(2,6-dichlorophenyl)-4,5-dihydroisoxazol-3-yl)thiazol-2-yl)piperidin-1-yl)-2-((5-(trifluoromethyl)pyridin-2-yl)oxy)ethan-1-one]: the inhibition of growth at 30 ppm was 70%.
Same read-out and setting: next, `CS(=O)(=O)Oc1cccc(Cl)c1C1CC(c2csc(C3CCN(C(=O)COc4ccc(C(F)(F)F)cn4)CC3)n2)=NO1` (centres unmarked) [Compound 48, 3-chloro-2-(3-(2-(1-(2-((5-(trifluoromethyl)pyridin-2-yl)oxy)acetyl)piperidin-4-yl)thiazol-4-yl)-4,5-dihydroisoxazol-5-yl)phenyl methanesulfonate]: 70%.
Consider `O=C(COc1ccc(C(F)(F)F)cn1)N1CCC(c2nc(C3=NOC(c4c(F)cccc4F)C3)cs2)CC1` (centres unmarked) [Compound 49, 1-(4-(4-(5-(2,6-difluorophenyl)-4,5-dihydroisoxazol-3-yl)thiazol-2-yl)piperidin-1-yl)-2-((5-(trifluoromethyl)pyridin-2-yl)oxy)ethan-1-one], for which the inhibition of growth at 30 ppm worked out at 70%.
Consider `O=C(COc1ncc(C(F)(F)F)cc1Br)N1CCC(c2nc(C3=NOC(c4c(Cl)cccc4Cl)C3)cs2)CC1` (centres unmarked) [Compound 51, 2-((3-bromo-5-(trifluoromethyl)pyridin-2-yl)oxy)-1-(4-(4-(5-(2,6-dichlorophenyl)-4,5-dihydroisoxazol-3-yl)thiazol-2-yl)piperidin-1-yl)ethan-1-one], for which the inhibition of growth at 30 ppm stood at 70%.
Turning to `O=C(COc1ncc(C(F)(F)F)cc1Br)N1CCC(c2nc(C3=NOC(c4c(Cl)cc(Cl)cc4Cl)C3)cs2)CC1` (centres unmarked) [Compound 54, 2-((3-bromo-5-(trifluoromethyl)pyridin-2-yl)oxy)-1-(4-(4-(5-(2,4,6-trichlorophenyl)-4,5-dihydroisoxazol-3-yl)thiazol-2-yl)piperidin-1-yl)ethan-1-one], the inhibition of growth at 30 ppm was 70%.
Regarding `O=C(COc1ncccc1C(F)(F)F)N1CCC(c2nc(C3OCc4ccccc4CO3)cs2)CC1` [Compound 59, 1-(4-(4-(1,5-dihydrobenzo[e][1,3]dioxepin-3-yl)thiazol-2-yl)piperidin-1-yl)-2-((3-(trifluoromethyl)pyridin-2-yl)oxy)ethan-1-one], the inhibition of growth at 30 ppm is 70%.
As to `O=C(CSc1ncccc1C(F)(F)F)N1CCC(c2nc(C3=NOC(c4c(Cl)cc(Cl)cc4Cl)C3)cs2)CC1` (centres unmarked) [Compound 63], the inhibition of growth at 30 ppm amounted to 70%.
Still for that read-out and setting: next, `O=C(CSc1ncc(C(F)(F)F)cc1Cl)N1CCC(c2nc(C3=NOC(c4c(F)cccc4F)C3)cs2)CC1` (centres unmarked) [Compound 65, 2-((3-chloro-5-(trifluoromethyl)pyridin-2-yl)thio)-1-(4-(4-(5-(2,6-difluorophenyl)-4,5-dihydroisoxazol-3-yl)thiazol-2-yl)piperidin-1-yl)ethan-1-one]: 70%; `CN(C)C(N(CC(=O)N1CCC(c2nc(C3=NOC(c4c(F)cccc4F)C3)cs2)CC1)c1ccc(C(F)(F)F)cn1)=[N+](C)C` (centres unmarked) [Compound 69]: 70%; `O=C(COc1cccc(C(F)(F)F)n1)N1CCC(c2nc(C3=NOC(c4c(Cl)cccc4Cl)C3)cs2)CC1` (centres unmarked) [Compound 70, 1-(4-(4-(5-(2,6-dichlorophenyl)-4,5-dihydroisoxazol-3-yl)thiazol-2-yl)piperidin-1-yl)-2-((6-(trifluoromethyl)pyridin-2-yl)oxy)ethan-1-one]: 70%.
For `CS(=O)(=O)Oc1cccc(Cl)c1C1CC(c2csc(C3CCN(C(=O)COc4cccc(C(F)(F)F)n4)CC3)n2)=NO1` (centres unmarked) [Compound 71, 3-chloro-2-(3-(2-(1-(2-((6-(trifluoromethyl)pyridin-2-yl)oxy)acetyl)piperidin-4-yl)thiazol-4-yl)-4,5-dihydroisoxazol-5-yl)phenyl methanesulfonate], the inhibition of growth at 30 ppm came out at 70%.
On to `O=C(COc1cccc(C(F)(F)F)n1)N1CCC(c2nc(C3=NOC(c4c(F)cccc4F)C3)cs2)CC1` (centres unmarked) [Compound 72, 1-(4-(4-(5-(2,6-difluorophenyl)-4,5-dihydroisoxazol-3-yl)thiazol-2-yl)piperidin-1-yl)-2-((6-(trifluoromethyl)pyridin-2-yl)oxy)ethan-1-one], for which the inhibition of growth at 30 ppm is 70%.
In the case of `Cc1cccnc1OCC(=O)N1CCC(c2nc(C3=NOC(c4c(Cl)cccc4OS(C)(=O)=O)C3)cs2)CC1` (centres unmarked) [Compound 78, 3-chloro-2-(3-(2-(1-(2-((3-methylpyridin-2-yl)oxy)acetyl)piperidin-4-yl)thiazol-4-yl)-4,5-dihydroisoxazol-5-yl)phenyl methanesulfonate], the inhibition of growth at 30 ppm is 70%.
With `O=C(CNc1ncccc1C(F)(F)F)N1CCC(c2nc(C3=NOC(c4c(Cl)cccc4Cl)C3)cs2)CC1` (centres unmarked) [Compound 82, 1-(4-(4-(5-(2,6-dichlorophenyl)-4,5-dihydroisoxazol-3-yl)thiazol-2-yl)piperidin-1-yl)-2-((3-(trifluoromethyl)pyridin-2-yl)amino)ethan-1-one], the inhibition of growth at 30 ppm was determined as 70%.
On the same count and under the same terms, next, `Cc1cnc(OCC(=O)N2CCC(c3nc(C4=NOC(c5c(Cl)cc(Cl)cc5Cl)C4)cs3)CC2)c(C(F)(F)F)c1` (centres unmarked) [Compound 83, 2-((5-methyl-3-(trifluoromethyl)pyridin-2-yl)oxy)-1-(4-(4-(5-(2,4,6-trichlorophenyl)-4,5-dihydroisoxazol-3-yl)thiazol-2-yl)piperidin-1-yl)ethan-1-one]: 70%; `Cc1cnc(OCC(=O)N2CCC(c3nc(C4=NOC(c5c(Cl)cccc5Cl)C4)cs3)CC2)c(C(F)(F)F)c1` (centres unmarked) [Compound 84, 1-(4-(4-(5-(2,6-dichlorophenyl)-4,5-dihydroisoxazol-3-yl)thiazol-2-yl)piperidin-1-yl)-2-((5-methyl-3-(trifluoromethyl)pyridin-2-yl)oxy)ethan-1-one]: 70%; `Cc1cnc(OCC(=O)N2CCC(c3nc(C4=NOC(c5c(Cl)cccc5OS(C)(=O)=O)C4)cs3)CC2)c(C(F)(F)F)c1` (centres unmarked) [Compound 85, 3-chloro-2-(3-(2-(1-(2-((5-methyl-3-(trifluoromethyl)pyridin-2-yl)oxy)acetyl)piperidin-4-yl)thiazol-4-yl)-4,5-dihydroisoxazol-5-yl)phenyl methanesulfonate]: 70%.
Consider `Cc1cnc(OCC(=O)N2CCC(c3nc(C4=NOC(c5c(F)cccc5F)C4)cs3)CC2)c(C(F)(F)F)c1` (centres unmarked) [Compound 88, 1-(4-(4-(5-(2,6-difluorophenyl)-4,5-dihydroisoxazol-3-yl)thiazol-2-yl)piperidin-1-yl)-2-((5-methyl-3-(trifluoromethyl)pyridin-2-yl)oxy)ethan-1-one], for which the inhibition of growth at 30 ppm amounted to 70%.
